# According to ChEMBL document CHEMBL4419178, “Yap1 inhibitors that target the interaction of yap1 with oct4” (2018):
# The source made the active and inactive calls. The rule behind the calls is not given here.
# Columns and labels:
# [1] = molecular target: Transcriptional coactivator YAP1 (Homo sapiens) (UniProt P46937); assay: Inhibition of YAP1 (unknown origin) assessed as disruption in YAP1/OCT4 interaction at 10 uM by ELISA relative to control
# NCI-H1650 [2] = assay: Inhibition of self-renewal capacity in stem-like side-population cells of human NCI-H1650 cells assessed as reduction in number of spheres at 5 to 50 uM incubated for 10 days by sphere formation assay; assay type: functional, cell-based
# NCI-H1650 [3] = assay: Cytotoxicity in human NCI-H1650 cells assessed as induction of cell killing in presence of cancer associated fibroblasts at 20 to 50 uM incubated for 24 to 48 hrs by cytotracker-red/green dye staining based immunofluorescence microscopy; assay type: functional
# A549 = assay: Cytotoxicity in human A549 cells assessed as reduction in cell viability at 1 to 20 uM incubated for 72 hrs by MTT assay; assay type: functional, cell-based
# NCI-H1650 [4] = assay: Cytotoxicity in human NCI-H1650 cells assessed as reduction in cell viability at 20 to 50 uM incubated for 24 hrs followed by medium replacement with RPMI medium with 10% FCS for 48 hrs by MTT assay; assay type: functional, cell-based
# NCI-H1650 [5] = assay: Cytotoxicity in human NCI-H1650 cells assessed as reduction in cell viability at 1 to 20 uM incubated for 72 hrs by MTT assay; assay type: functional, cell-based
# NCI-H1650 [6] = assay: Cytotoxicity in human NCI-H1650 cells assessed as reduction in cell viability at 20 to 50 uM incubated for 72 hrs by MTT assay; assay type: functional, cell-based
# NCI-H2286 = assay: Cytotoxicity in human NCI-H2286 cells assessed as reduction in cell viability at 5 to 50 uM incubated for 96 hrs by MTT assay; assay type: functional, cell-based
# [7] = molecular target: Transcriptional coactivator YAP1 (Homo sapiens) (UniProt P46937); assay: Inhibition of YAP1 (unknown origin) assessed as disruption in YAP1/OCT4 interaction at 50 uM by cell based assay
# NCI-H2170 = assay: Cytotoxicity in human NCI-H2170 cells assessed as reduction in cell viability at 5 to 50 uM incubated for 96 hrs by MTT assay; assay type: functional, cell-based
# [8] = Cytotoxicity in human cancer associated fibroblasts at 20 to 50 uM incubated for 24 to 48 hrs by cytotracker-red/green dye staining based immunofluorescence microscopy
# NCI-H1650 [9] = assay: Inhibition of YAP1/TEAD2 interaction in human NCI-H1650 cells assessed as suppression of CTGF mRNA expression at 5 to 10 uM incubated for 72 hrs by RT-PCR method; assay type: cell-based
# [10] = molecular target: Transcriptional coactivator YAP1 (Homo sapiens) (UniProt P46937); assay: Inhibition of YAP1 in human A549 cells assessed as reduction in Sox2 protein expression at 10 uM incubated for 72 hrs by Western blot analysis; assay type: cell-based
# [11] = molecular target: Transcriptional coactivator YAP1 (Homo sapiens) (UniProt P46937); assay: Inhibition of YAP1 in human A549 cells assessed as reduction in PDK2 protein expression at 10 uM incubated for 72 hrs by Western blot analysis; assay type: cell-based
# [12] = molecular target: Transcriptional coactivator YAP1 (Homo sapiens) (UniProt P46937); assay: Inhibition of YAP1 in human NCI-H146 cells assessed as suppression of PDK2 mRNA expression at 5 to 10 uM incubated for 72 hrs by RT-PCR method; assay type: cell-based
# [13] = molecular target: Transcriptional coactivator YAP1 (Homo sapiens) (UniProt P46937); assay: Inhibition of YAP1 in human NCI-H146 cells assessed as suppression of HK2 mRNA expression at 5 to 10 uM incubated for 72 hrs by RT-PCR method; assay type: cell-based
# NCI-H1703 [14] = assay: Inhibition of adherence-independent cell growth in human NCI-H1703 cells at 10 uM incubated for 33 days; assay type: functional, cell-based
# [15] = molecular target: Transcriptional coactivator YAP1 (Homo sapiens) (UniProt P46937); assay: Inhibition of YAP1 in human NCI-H1650 cells assessed as reduction in PDK2 protein expression at 10 uM incubated for 72 hrs by Western blot analysis; assay type: cell-based
# NCI-H1650 [16] = assay: Effect on expression of Oct4 mRNA expression in human NCI-H1650 cells at 5 to 10 uM incubated for 72 hrs by RT-PCR method; assay type: cell-based; settings: nci-h1650, 72 h
# [17] = molecular target: Transcriptional coactivator YAP1 (Homo sapiens) (UniProt P46937); assay: Inhibition of YAP1 in human NCI-H1703 cells assessed as suppression of fibronectin mRNA expression at 5 to 10 uM incubated for 72 hrs by RT-PCR method; assay type: cell-based
# [18] = molecular target: Transcriptional coactivator YAP1 (Homo sapiens) (UniProt P46937); assay: Inhibition of YAP1 in human NCI-H1703 cells assessed as suppression of HK2 mRNA expression at 5 to 10 uM incubated for 72 hrs by RT-PCR method; assay type: cell-based
# [19] = molecular target: Transcriptional coactivator YAP1 (Homo sapiens) (UniProt P46937); assay: Inhibition of YAP1 in human NCI-H1650 cells assessed as reduction in c-Myc protein expression at 10 uM incubated for 72 hrs by Western blot analysis; assay type: cell-based
# [20] = molecular target: Transcriptional coactivator YAP1 (Homo sapiens) (UniProt P46937); assay: Inhibition of YAP1 in human NCI-H1650 cells assessed as reduction in Sox2 protein expression at 10 uM incubated for 72 hrs by Western blot analysis; assay type: cell-based
# [21] = molecular target: Transcriptional coactivator YAP1 (Homo sapiens) (UniProt P46937); assay: Inhibition of YAP1 in human NCI-H1650 cells assessed as suppression of HK2 mRNA expression at 5 to 10 uM incubated for 72 hrs by RT-PCR method; assay type: cell-based
# NCI-H1975 = assay: Cytotoxicity in gefitinib and erlotinib resistant human NCI-H1975 cells assessed as reduction in cell viability at 1 to 10 uM incubated for 72 hrs by MTT assay; assay type: functional, cell-based
# NCI-H1650 [22] = assay: Effect on expression of Nanog mRNA expression in human NCI-H1650 cells at 5 to 10 uM incubated for 72 hrs by RT-PCR method; assay type: cell-based; settings: nci-h1650, 72 h
# [23] = molecular target: Transcriptional coactivator YAP1 (Homo sapiens) (UniProt P46937); assay: Inhibition of YAP1 in human NCI-H146 cells assessed as suppression of Sox2 mRNA expression at 5 to 10 uM incubated for 72 hrs by RT-PCR method; assay type: cell-based
# NCI-H1650 [24] = assay: Inhibition of adherence-independent cell growth in human NCI-H1650 cells at 5 uM incubated for 33 days; assay type: functional, cell-based
# [25] = molecular target: Transcriptional coactivator YAP1 (Homo sapiens) (UniProt P46937); assay: Inhibition of YAP1 in human NCI-H1650 cells assessed as suppression of PD-L1 mRNA expression at 5 to 10 uM incubated for 72 hrs by RT-PCR method; assay type: cell-based
# NCI-H1703 [26] = assay: Effect on expression of Oct4 mRNA expression in human NCI-H1703 cells at 5 to 10 uM incubated for 72 hrs by RT-PCR method; assay type: cell-based; settings: nci-h1703, 72 h
# [27] = molecular target: Transcriptional coactivator YAP1 (Homo sapiens) (UniProt P46937); assay: Inhibition of YAP1 in human NCI-H1650 cells assessed as suppression of vimentin mRNA expression at 5 to 10 uM incubated for 72 hrs by RT-PCR method; assay type: cell-based
# NCI-H1703 [28] = assay: Inhibition of adherence-independent cell growth in human NCI-H1703 cells at 5 uM incubated for 33 days; assay type: functional, cell-based
# NCI-H146 [29] = assay: Inhibition of self-renewal capacity in methotrexate insensitive stem-like side-population cells of human NCI-H146 cells assessed as reduction in number of spheres at 2 uM incubated for 3 days after 7 days methotrexate exposure by sphere formation assay; assay type: functional
# [30] = molecular target: Transcriptional coactivator YAP1 (Homo sapiens) (UniProt P46937); assay: Inhibition of YAP1 in human NCI-H1650 cells assessed as suppression of Sox2 mRNA expression at 5 to 10 uM incubated for 72 hrs by RT-PCR method; assay type: cell-based
# NCI-H146 [31] = assay: Effect on expression of Oct4 mRNA expression in human NCI-H146 cells at 5 to 10 uM incubated for 72 hrs by RT-PCR method; assay type: cell-based; settings: nci-h146, 72 h
# [32] = molecular target: Transcriptional coactivator YAP1 (Homo sapiens) (UniProt P46937); assay: Inhibition of YAP1 in human NCI-H1703 cells assessed as suppression of PDK2 mRNA expression at 5 to 10 uM incubated for 72 hrs by RT-PCR method; assay type: cell-based
# NCI-H1703 [33] = assay: Inhibition of YAP1/TEAD2 interaction in human NCI-H1703 cells assessed as suppression of CTGF mRNA expression at 5 to 10 uM incubated for 72 hrs by RT-PCR method; assay type: cell-based
# [34] = molecular target: Transcriptional coactivator YAP1 (Homo sapiens) (UniProt P46937); assay: Inhibition of YAP1 in human NCI-H1703 cells assessed as suppression of Sox2 mRNA expression at 5 to 10 uM incubated for 72 hrs by RT-PCR method; assay type: cell-based
# NCI-H146 [35] = assay: Effect on expression of Nanog mRNA expression in human NCI-H146 cells at 5 to 10 uM incubated for 72 hrs by RT-PCR method; assay type: cell-based; settings: nci-h146, 72 h
# [36] = molecular target: Transcriptional coactivator YAP1 (Homo sapiens) (UniProt P46937); assay: Inhibition of YAP1 in human A549 cells assessed as reduction in c-Myc protein expression at 10 uM incubated for 72 hrs by Western blot analysis; assay type: cell-based
# NCI-H1703 [37] = assay: Effect on expression of Nanog mRNA expression in human NCI-H1703 cells at 5 to 10 uM incubated for 72 hrs by RT-PCR method; assay type: cell-based; settings: nci-h1703, 72 h
# [38] = molecular target: Transcriptional coactivator YAP1 (Homo sapiens) (UniProt P46937); assay: Inhibition of YAP1 in human NCI-H1703 cells assessed as suppression of vimentin mRNA expression at 5 to 10 uM incubated for 72 hrs by RT-PCR method; assay type: cell-based
# NCI-H1650 [39] = assay: Inhibition of adherence-independent cell growth in human NCI-H1650 cells at 10 uM incubated for 33 days; assay type: functional, cell-based
# [40] = molecular target: Transcriptional coactivator YAP1 (Homo sapiens) (UniProt P46937); assay: Inhibition of YAP1 in human NCI-H1650 cells assessed as suppression of PDK2 mRNA expression at 5 to 10 uM incubated for 72 hrs by RT-PCR method; assay type: cell-based
# [41] = molecular target: Transcriptional coactivator YAP1 (Homo sapiens) (UniProt P46937); assay: Inhibition of YAP1 in human NCI-H1703 cells assessed as suppression of PD-L1 mRNA expression at 5 to 10 uM incubated for 72 hrs by RT-PCR method; assay type: cell-based
# [42] = molecular target: Transcriptional coactivator YAP1 (Homo sapiens) (UniProt P46937); assay: Inhibition of YAP1 in human NCI-H1650 cells assessed as suppression of fibronectin mRNA expression at 5 to 10 uM incubated for 72 hrs by RT-PCR method; assay type: cell-based
# Sequence of Transcriptional coactivator YAP1 (Homo sapiens) (P46937 whole entry): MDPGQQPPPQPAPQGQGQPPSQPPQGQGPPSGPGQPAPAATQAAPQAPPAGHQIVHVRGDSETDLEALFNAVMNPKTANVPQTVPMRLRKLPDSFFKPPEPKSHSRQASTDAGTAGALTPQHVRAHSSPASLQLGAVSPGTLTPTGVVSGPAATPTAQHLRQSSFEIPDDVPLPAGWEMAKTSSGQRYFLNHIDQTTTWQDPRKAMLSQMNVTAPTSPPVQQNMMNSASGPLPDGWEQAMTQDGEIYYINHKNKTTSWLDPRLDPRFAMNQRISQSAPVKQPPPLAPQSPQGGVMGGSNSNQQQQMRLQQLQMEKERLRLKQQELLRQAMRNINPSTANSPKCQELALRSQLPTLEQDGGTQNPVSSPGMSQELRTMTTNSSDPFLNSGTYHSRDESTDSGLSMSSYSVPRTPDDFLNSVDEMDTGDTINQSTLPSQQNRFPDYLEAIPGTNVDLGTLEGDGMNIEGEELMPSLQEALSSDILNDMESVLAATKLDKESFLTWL
compound,measurement,setting,value
COC(=O)[C@H](Cc1ccc(OCc2ccccc2)cc1)NC(=O)CC1CCN(C(=O)Cc2ccccc2)CC1,inhibition,[1],80%
same,inhibition,NCI-H1650 [2],Active
same,Activity,NCI-H1650 [3],Active
same,Activity,A549,Active
same,Activity,NCI-H1650 [4],Active
same,Activity,NCI-H1650 [5],Active
same,Activity,NCI-H1650 [6],Active
same,Activity,NCI-H2286,Active
same,inhibition,[7],82%
same,Activity,NCI-H2170,Active
same,Activity,[8],Non-Toxic
COC(=O)[C@H](Cc1ccc(OCc2ccccc2)cc1)NC(=O)CC1CCN(C(=O)CCc2cc(OC)c(OC)c(OC)c2)CC1,inhibition,NCI-H1650 [2],Active
same,Activity,A549,Active
same,Activity,NCI-H1650 [5],Active
same,Activity,NCI-H2286,Active
same,Activity,NCI-H2170,Active
COC(=O)[C@H](Cc1ccc(OCc2ccccc2)cc1)NC(=O)CC1CCN(C(=O)CCCc2ccccc2)CC1,inhibition,NCI-H1650 [9],inactive
same,inhibition,[10],Active
same,inhibition,[11],Active
same,inhibition,[12],Active
same,inhibition,[13],Active
same,inhibition,NCI-H1703 [14],Active
same,inhibition,[15],Active
same,Activity,NCI-H1650 [16],Non-Toxic
same,inhibition,[17],Active
same,inhibition,[18],Active
same,inhibition,[19],Active
same,inhibition,[20],Active
same,inhibition,[21],Active
same,Activity,NCI-H1975,Active
same,Activity,NCI-H1650 [22],Non-Toxic
same,inhibition,[23],Active
same,inhibition,NCI-H1650 [24],Active
same,inhibition,[25],Active
same,Activity,NCI-H1703 [26],Non-Toxic
same,inhibition,[27],Active
same,inhibition,NCI-H1703 [28],Active
same,inhibition,NCI-H146 [29],Active
same,inhibition,[30],Active
same,Activity,NCI-H146 [31],Non-Toxic
same,inhibition,[32],Active
same,inhibition,NCI-H1703 [33],inactive
same,inhibition,[34],Active
same,Activity,NCI-H146 [35],Non-Toxic
same,inhibition,[36],Active
same,Activity,NCI-H1703 [37],Non-Toxic
same,inhibition,[38],Active
same,inhibition,NCI-H1650 [39],Active
same,inhibition,[40],Active
same,inhibition,[41],Active
same,inhibition,[42],Active
